According to US20070191495A1, “Lipase inhibitor” (FUJI OIL COMPANY, LIMITED, priority 2004, published 2007):

Legend:
[1] = biological target: T1, pig pancreatic lipase (Sus scrofa, UniProt P00591); assay: lipase activity measurement (free fatty acid released from emulsified fat, OD480); assay type: biochemical; conditions: for Relative activity of test fat to soybean oil: 37° C., 1 hour
T1 construct: purchased Sigma
T1 sequence (P00591 1-450): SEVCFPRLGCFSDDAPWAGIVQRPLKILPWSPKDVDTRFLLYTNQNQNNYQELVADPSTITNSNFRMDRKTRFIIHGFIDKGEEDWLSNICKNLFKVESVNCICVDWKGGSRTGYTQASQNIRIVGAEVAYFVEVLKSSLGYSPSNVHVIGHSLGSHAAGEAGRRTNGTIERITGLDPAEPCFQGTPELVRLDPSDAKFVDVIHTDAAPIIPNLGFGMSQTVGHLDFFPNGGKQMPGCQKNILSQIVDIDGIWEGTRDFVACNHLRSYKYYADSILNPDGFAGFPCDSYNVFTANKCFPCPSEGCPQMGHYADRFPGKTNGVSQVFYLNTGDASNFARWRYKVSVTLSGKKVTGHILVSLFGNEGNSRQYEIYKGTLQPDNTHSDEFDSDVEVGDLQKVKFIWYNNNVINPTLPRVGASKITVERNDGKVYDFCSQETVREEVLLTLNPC
Experimental: (§1) Soybean oils of which 1 part (2O2 purity: about 0.8%), 5 parts (2O2 purity: about 4.2%), 10 parts (2O2 purity: about 8.3%) and 50 parts (2O2 purity about: 41.5%) were replaced with the 2O2 fraction obtained as described above, and the 2O2 fraction itself (2O2 purity: 83%) were used for the following lipase activity measurement. To 80 mg of each oil, 80 mg of phosphatidylcholine (Sigma), 5 mg of sodium taurocholate (Wako Pure Chemical Industries, Ltd.), and 9 ml of a 0.1 M TES buffer (PH 7) containing 0.1 M NaCl were added and the mixture was emulsified with an ultrasound oscillator for 1 minute to obtain a substrate. To 300 μl of the substrate, 5 μl (5U) of a pig pancreatic lipase (Sigma) was added and then reacted at 37° C. for 1 hour. To the reaction mixture was then added 3 ml of an extraction solvent (a mixture of chloroform/heptane/methanol=49 parts/49 parts/2 parts). The mixture was stirred vigorously and then centrifuged at 2500 rpm for 5 minutes. The upper layer was removed. To the lower layer was added 1 ml of a copper regent (prepared by dissolving 2.98 g of triethanolamine, 2.42 g of copper nitrate and 0.48 g of NaOH in 200 ml of water and then adding 66 g of NaCl). The mixture was stirred for 10 minutes and then centrifuged at 2500 rpm for 10 minutes to take 1.5 ml of the upper layer as a sample. To the sample was added 1.5 ml of a color-producing reagent (prepared by 0.2 g of bathocuproin and 0.1 g of butylhydroxyanisole in 200 ml of chloroform) and an absorbance at OD480 was measured as the quantity of free fatty acid.
as §1, with “(LUU/UUL” for “(2O2”, “0.7%),” for “0.8%),”, “3.5%) and” for “4.2%),”, “7.0%)” for “8.3%) and 50 parts (2O2 purity about: 41.5%)”, “LUU/UUL” for “2O2”, “70%)” for “83%)”
Soybean oils of which 1 part, 5 parts and 10 parts were replaced with the glyceryl ether lipid fraction obtained as described above, and the glyceryl ether lipid fraction itself were used for the following lipase activity measurement. To 80 mg of each oil, 80 mg of phosphatidylcholine (Sigma), 5 mg of sodium taurocholate (Wako Pure Chemical Industries, Ltd.), and 9 ml of a 0.1 M TES buffer (PH 7) containing 0.1 M NaCl were added and the mixture was emulsified with an ultrasound oscillator for 1 minute to obtain a substrate. To 300 μl of the substrate, 5 μl (5U) of a pig pancreatic lipase (Sigma) was added and then reacted at 37° C. for 1 hour. To the reaction mixture was then added 3 ml of an extraction solvent (a mixture of chloroform/heptane/methanol =49 parts/49 parts/2 parts). The mixture was stirred vigorously and then centrifuged at 2500 rpm for 5 minutes. […]

[2] = Digestion and absorption test in mouse; assay type: in vivo, C57BL/6J mice; conditions: for Body fat percentage: PIXImus2; for Body weight: in g (unit assumed)
Experimental: Using the 2O2 fraction obtained in Preparation Example 1 and mice, a digestion and absorption test was performed for about 2 months. Seven-week-old C57BL/6J mice were pre-reared for 1 week and used for the test. The compounded feed shown in Table 2, which is prepared by partially modifying AIN-93G composition, or soybean oil as a control was fed to the mice for about 2 months. Each group consisted of 6 mice. After reared for about 2 months, a change in the body weight, feed efficiency and body fat percentage were measured. For measuring body fat percentage, an X-ray bone density measuring apparatus for exclusive use in experimental mice, PIXImus2 (GE Medical Systems) was used. As a result of a digestion and adsorption test on mice for 56 days, in a group using the 2O2 fraction, the body weight was reduced by about 10%, the feed efficiency was reduced by 17%, and the body fat percentage was reduced by about 14%.
Using the LUU/UUL fraction obtained in Preparation Example 3 and mice, a digestion and absorption test was performed for about 2 months. Seven-week-old C57BL/6J mice were pre-reared for 1 week and used for the test. The compounded feed shown in Table 5, which is prepared by partially modifying AIN-93G composition, or soybean oil as a control was fed to the mice for about 2 months. Each group consisted of 6 mice. After reared for about 2 months, a change in the body weight, feed efficiency and body fat percentage were measured. For measuring body fat percentage, an X-ray bone density measuring apparatus for exclusive use in experimental mice, PIXImus2 (GE Medical Systems) was used. As a result of a digestion and adsorption test on mice for 56 days, in a group using the […] fraction, the body weight was reduced by about 9%, the feed efficiency was reduced by 12%, and the body fat percentage was reduced by about 13%.
Using the glyceryl ether lipid fraction obtained in Preparation Example 4 and mice, a digestion and absorption test was performed for about 2 months. Seven-week-old C57BL/6J mice were pre-reared for 1 week and used for the test. The compounded feed shown in Table 8, which is prepared by partially modifying AIN-93G composition, or soybean oil as a control was fed to the mice for about 2 months. Each group consisted of 6 mice. After reared for about 2 months, a change in the body weight, feed efficiency and body fat percentage were measured. For measuring body fat percentage, an X-ray bone density measuring apparatus for exclusive use in experimental mice, PIXImus2 (GE Medical Systems) was used. As a result of a digestion and adsorption test on mice for 56 days, in a group using soybean oil/the glyceryl ether lipid fraction, the body weight and the feed efficiency were reduced by bout 10%, and the body fat percentage was reduced by about 12%.

[3] = fat composition soybean oil/test fat 0/100 (part), the fraction itself
[4] = fat composition soybean oil/test fat 50/50 (part)
[5] = fat composition soybean oil/test fat 90/10 (part)
[6] = fat composition soybean oil/test fat 95/5 (part)
[7] = fat composition soybean oil/test fat 99/1 (part)
[8] = soybean oil of which 1 part was replaced with the test fat
[9] = 56 days, versus soybean oil group
[10] = after rearing for 56 days, feed with 10.0 wt % soybean oil + 0.5 wt % test fraction
[11] = before initiation of rearing, feed with 10.0 wt % soybean oil + 0.5 wt % test fraction

Row | Relative activity of test fat to soybean oil [1, 3] [%] | Relative activity of test fat to soybean oil [1, 4] [%] | Relative activity of test fat to soybean oil [1, 5] [%] | Relative activity of test fat to soybean oil [1, 6] [%] | Relative activity of test fat to soybean oil [1, 7] [%] | activity inhibited by [1, 8] | activity inhibited by ([1]; soybean oil of which 5 parts were replaced with the test fat) | activity inhibited by ([1]; soybean oil of which 10 parts was replaced with the test fat) | SMILES | body fat percentage reduced by [2, 9] | body weight reduced by [2, 9] | feed efficiency reduced by [2, 9] [%] | Body fat percentage [2, 10] | Feed efficiency [2, 10] | Body weight [2, 10] | Body fat percentage [2, 11] | Body weight [2, 11]
1 | 11 | 48 | 67 | 66 | 78 | about 20% | about 35% | – | CCCCCCCC/C=C\CCCCCCCC(=O)OC(COC(C)=O)COC(C)=O [2O2] | about 14% | about 10% | 17 | 34.8 ± 2.5 | 0.061 ± 0.002 | 30.7 ± 1.4 | 19.1 ± 0.9 | 22.8 ± 0.3
2 | 30 | 68 | 74 | 91 | 86 | about 15% | – | about 25% | CCCCCCCC/C=C\CCCCCCCC(=O)OC(COC(=O)CCCCC)COC(=O)CCCCC [6O6] | – | – | – | – | – | – | – | –
